Assay results taken from PubChem BioAssay AID179 (DTP/NCI, 2004).
Where “and” joins values, the source holds several entries; their conditions need not be identical. Equal values may be shown once. Calls of active or inactive are those of the source.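 Rule for the calls: active = compounds giving half or more protection of infected cells from virus-caused growth loss, again on retest; inactive = the rest.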

Tested on: CEM cells HIV-1 protection, formazan growth assay
Test: NCI AIDS Antiviral Assay
Details: for IC50: measured here: growth of uninfected CEM cells
Summary of the method: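 Protection of CEM cells against HIV-1 measured as cell growth via soluble formazan read-out, with five concentrations tested on both infected and uninfected cells; failure to protect may reflect toxicity.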

SMILES | EC50 [µM] | IC50 | outcome
CSC(=O)/C=C1\SS/C(=C\C(=O)SC)S1 | > 200 | 3.09 µM | –
CCC1=C(OC)c2ncccc2C(=O)C1=O | – | – | inactive
CC(=O)N1CCSC(C(=O)Nc2ccccc2)=C1C | > 646 | > 646 µM | –
CCCCCC1OC1(c1cc(Br)c(OC)c(C(=O)OC)c1)c1cc(Br)c(OC)c(C(=O)OC)c1 (stereo unspecified) | > 200 | 67.6 µM | –
COc1ccc(/C(C#N)=C/c2ccccc2OC)cc1 | > 200 | 11.5 µM | –
O=C(O)c1ccc([N+](=O)[O-])c2cc3cnccc3nc12 | > 200 | 2.88 µM | –
Cc1c(C2CCSc3ccccc3N2)sc2ccccc12 (stereo unspecified) | > 200 | 148 µM | –
O=C(CC1SC(=Nc2ccccc2Cl)NC1=O)Nc1ccc(Cl)cc1 (stereo unspecified) | > 631 | > 200 µM | –
COc1ccc2c(ccc(=O)n2C)c1 | > 200 | > 200 µM | –
COc1ccc2nc3c([N+](=O)[O-])ccc4c3c(c2c1)NCCN4C | > 100 | 0.513 µM | –
CC(=O)[O-].[O-]c1c(Cl)cc(Cl)cc1/C=N/Nc1ccccn1.[Zn+2] | – | – | inactive
C=CCCCCC1CCC2CCC(CCCC)N12 (stereo unspecified) | > 525 | > 525 µM | –
COC(=O)C1=COC(C)C2CN3CCC4(C(=O)Nc5ccccc54)C3CC12 (stereo unspecified) | – | – | inactive
O=C(CC(C(=O)c1cccs1)c1ccsc1)c1ccccc1 (stereo unspecified) | > 200 | 151 µM | –
O=C(c1ccccc1)[C@H]1Nc2ccc(Cl)cc2C2c3ccccc3CC21 (stereo partly specified) | > 14.5 | > 14.5 µM | –
Cc1ccccc1C(C#N)C(=O)C(=O)Nc1nc([N+](=O)[O-])cs1 (stereo unspecified) | > 7.94 | > 7.94 µM | –
CC(C)C(=O)C(C)(C)C(=O)C(C)(C)C(=O)OC(C)(C)C | > 200 | > 200 µM | –
O=C(Nc1nc2ccccc2n1Cc1ccc(Cl)cc1)C(=O)NC12CC3CC(CC(C3)C1)C2 | > 21.4 | > 21.4 µM | –
CCn1c(O)c(C=Nc2ccccc2)s/c1=N/Nc1nc(-c2ccc([N+](=O)[O-])cc2)cs1 | > 200 | 14.5 µM | –
CC(=O)Nc1cc(C(=O)Nc2cc(C(=O)Nc3cc(C(=O)Nc4cc(C(=O)Nc5cc(C(=O)NCCC(=O)NCCCN(C)C)n(C)c5)n(C)c4)n(C)c3)n(C)c2)n(C)c1 | > 174 | 26.9 µM | –
CCOC(=O)C12CCC(c3c(C)cccc3C)(O1)C(C(=O)OC)=C2C(=O)OC (stereo unspecified) | > 200 | 107 µM | –
O=C1C(=O)C(CN2CCOCC2)=C(N2CCOCC2)C(N2CCOCC2)=C1CN1CCOCC1 | > 200 | 77.6 µM | –

SMILES | EC50 [µM] | IC50 | outcome
CC1=C(C(=O)Nc2ccc([N+](=O)[O-])cc2)C(c2ccccc2O)C(C(=O)Nc2ccc([N+](=O)[O-])cc2)=C(C)N1 | > 49 | 30.9 µM | –
N#CC(/C(=N\NC(N)=S)C(=O)NC1C2CC3CC(C2)CC1C3)c1ccc(Cl)cc1 (stereo unspecified) | > 17 | > 17 µM | –
Cc1ccc(S(=O)(=O)NCNS(=O)(=O)c2ccc(C)cc2)cc1 | > 200 | > 200 µM | –
CCC1(CCO)C(=O)NC(=Nc2ccccc2)NC1=O (stereo unspecified) | > 479 | > 479 µM | –
O=C(/C=C/c1ccc2c(c1)OCO2)c1ccccc1 | > 200 | 7.08 µM and 11.2 µM | –
Cc1ccc(NC2=NCCO2)c2c1CCC2 | > 200 | 33.9 µM | –
CCCCCCCCCCCCCCCCCCOCC(COP(=O)([O-])OCC[N+](C)(C)C)OC (stereo unspecified) | > 10.2 | 2.45 µM | –
C=CCn1c2c(sc1=S)C(S)N=CN2 (stereo unspecified) | > 107 | 42.7 µM | –
O=Nc1c2cc3ccccc3[nH]c-2c2ccccc12 | > 40.7 | 20.4 µM | –
CN(C)CCS(=O)(=O)O | > 200 | > 200 µM | –
N#CCCN(c1ccc(/C=N/c2nc(-c3ccccc3)cs2)cc1)S(=O)(=O)c1ccccc1 | > 55 | > 55 µM | –
O=CN1CCN(C=S)CC1 | > 1580 | > 1580 µM | –
CCCCCC[C@@H]1CCC2C(CO)[C@@H](O)CC[C@@H]2C1 (stereo partly specified) | > 37.2 | 28.2 µM | –
COc1ccc(NC(=O)/C(C#N)=C/c2ccc(O)c(O)c2)cc1O | > 200 | 16.2 µM | –
O=c1cc(NNc2ccc(F)cc2)[nH]c(=O)[nH]1 | > 200 | 2.95 µM | –
CC(C(=O)OCc1ccccc1)(c1ccco1)N1C(=O)OC(c2ccccc2)C1c1ccccc1 (stereo unspecified) | > 200 | 13.5 µM | –
CC[N+]1(C)CCC(O)(c2ccccc2)C(C(=O)c2ccccc2)C1 (stereo unspecified) | – | – | inactive
O=C1NC(=O)C(=O)C(c2nc3ccccc3s2)C1=O | – | – | inactive
C=C(C)COC(=O)COCC(=O)OCC(=C)C | > 200 | > 200 µM | –
N#Cc1c(N)c2c(c(-c3ccccc3)c1-c1ccccc1)C(=O)N(NC(=S)Nc1ccccc1)C2=O | > 58.9 | 47.9 µM | –
O=C(c1ccccc1)c1nc2ccc(Cl)cc2cc1C(Br)Br | > 3.31 | > 3.31 µM | –
